# Test results published in US6432987B1, “Substituted N-benzylindol-3-ylglyoxylic acid derivatives having antitumor action” (Zentaris AG, priority 1999, dated 2002).
# Test system: tubulin
# Assay: tubulin polymerization assay
# Format: biochemical
# Details: result in words only
# Text: It was possible to show the activity of the present compounds in a tubulin polymerization assay.
smiles,measurement,value
"Nc1ccc(Cn2cc(C(=O)C(=O)Nc3ccncc3)c3ccccc32)cc1 [Example D-68838, N-(Pyridin-4-yl)-[1-(4-aminobenzyl)indol-3-yl]glyoxyl-amide]",inhibition of the polymerization of tubulin,inhibits the polymerization of tubulin
